Reference: US20090111837A1, “USE OF PDE7 INHIBITORS FOR THE TREATMENT OF NEUROPATHIC PAIN” (priority 2005, published 2009)

How the values were obtained:
[1] = tested on: CCI-induced static allodynia; assay: Static allodynia (von Frey hairs) in the chronic constriction injury (CCI) rat model of neuropathic pain; assay type: in vivo
Protocol: Male Sprague Dawley rats weighing 150-400 g obtained from Charles River (Manston, Kent, UK.) were housed in groups of 4. All animals were kept under a 12 h light/dark cycle (lights on at 07 h 00 min) with food and water ad libitum. All experiments were carried out by an observer blind to the treatments and in accordance with the Home Office Animals (Scientific Procedures) Act 1986.
The CCI of sciatic nerve was performed as previously described by Bennett and Xie (Bennett G J, Xie Y K. A peripheral mononeuropathy in rat that produces disorders of pain sensation like those seen in man. Pain: 33:87-107, 1988). Animals were anaesthetised with a 2% isofluorane/O2 mixture. The right hind thigh was shaved and swabbed with 1% iodine. Animals were then transferred to a homeothermic blanket for the duration of the procedure and anaesthesia maintained during surgery via a nose cone. The skin was cut along the line of the thighbone. The common sciatic nerve was exposed at the middle of the thigh by blunt dissection through biceps femoris. About 7 mm of nerve was freed proximal to the sciatic trifurcation, by inserting forceps under the nerve and the nerve gently lifted out of the thigh. Suture was pulled under the nerve using forceps and tied in a simple knot until slight resistance was felt and then double knotted. The procedure was repeated until 4 ligatures (4-0 silk) were tied loosely around the nerve with approx 1 mm spacing. The incision was closed in layers.
Animals were habituated to wire bottom test cages prior to the assessment of allodynia. Static allodynia was evaluated by application of von Frey hairs (Stoelting, Wood Dale, Ill., USA.) in ascending order of force (0.6, 1, 1.4, 2, 4, 6, 8, 10, 15 and 26 grams) to the plantar surface of hind paws. Each von Frey hair was applied to the paw for a maximum of 6 sec, or until a withdrawal response occurred. Once a withdrawal response to a von Frey hair was established, the paw was re-tested, starting with the filament below the one that produced a withdrawal, and subsequently with the remaining filaments in descending force sequence until no withdrawal occurred. The highest force of 26 g lifted the paw as well as eliciting a response, thus represented the cut off point. Each animal had both hind paws tested in this manner. The lowest amount of force required to elicit a response was recorded as paw withdrawal threshold (PWT) in grams. Static allodynia was defined as present if animals responded to a stimulus of, or less than, 4 g, which is innocuous in naive rats (Field M J, Bramwell S, Hughes J, Singh L. Detection of static and dynamic components of mechanical allodynia in rat models of neuropathic pain: are they signalled by distinct primary sensory neurones? Pain, 1999; 83:303-11).
All the experiments were conducted in blind. When the experiment was carried out in more then one day and where technically possible, all groups occurred on each day with equal replication. Static allodynia was expressed as median [LQ; UQ] and analysed by Mann Whitney U test. Dynamic allodynia was expressed as arithmetic mean±SEM and analysed by ANOVA.

[2] = tested on: CCI-induced dynamic allodynia; assay: Dynamic allodynia (cotton bud stroking) in the chronic constriction injury (CCI) rat model of neuropathic pain; assay type: in vivo
Protocol: Male Sprague Dawley rats weighing 150-400 g obtained from Charles River (Manston, Kent, UK.) were housed in groups of 4. All animals were kept under a 12 h light/dark cycle (lights on at 07 h 00 min) with food and water ad libitum. All experiments were carried out by an observer blind to the treatments and in accordance with the Home Office Animals (Scientific Procedures) Act 1986. The CCI of sciatic nerve was performed as previously described by Bennett and Xie (Bennett G J, Xie Y K. A peripheral mononeuropathy in rat that produces disorders of pain sensation like those seen in man. Pain: 33:87-107, 1988). Animals were anaesthetised with a 2% isofluorane/O2 mixture. The right hind thigh was shaved and swabbed with 1% iodine. Animals were then transferred to a homeothermic blanket for the duration of the procedure and anaesthesia maintained during surgery via a nose cone. The skin was cut along the line of the thighbone. The common sciatic nerve was exposed at the middle of the thigh by blunt dissection through biceps femoris. About 7 mm of nerve was freed proximal to the sciatic trifurcation, by inserting forceps under the nerve and the nerve gently lifted out of the thigh. Suture was pulled under the nerve using forceps and tied in a simple knot until slight resistance was felt and then double knotted. The procedure was repeated until 4 ligatures (4-0 silk) were tied loosely around the nerve with approx 1 mm spacing. The incision was closed in layers. Dynamic allodynia was assessed by lightly stroking the plantar surface of the hind paw with a cotton bud. To avoid recording general motor activity, care was taken to perform this procedure in fully habituated rats that were not active. At least two measurements were taken at each time point, the mean of which represented the paw withdrawal latency (PWL). […] A pain withdrawal response was often accompanied with repeated flinching or licking of the paw. Dynamic allodynia was considered to be present if animals responded to the cotton stimulus within 8 sec of commencing stroking (Field et al, 1999). All the experiments were conducted in blind. When the experiment was carried out in more then one day and where technically possible, all groups occurred on each day with equal replication. Static allodynia was expressed as median [LQ; UQ] and analysed by Mann Whitney U test. Dynamic allodynia was expressed as arithmetic mean±SEM and analysed by ANOVA.

[3] = CCI rats, PO, 0.3, 1 and 3 mg/kg
[4] = CCI rats, PO, post administration
[5] = CCI rats, oral (PO), doses 0.3, 1 and 3 mg/kg
[6] = highest dose (3 mg/kg PO) vs gabapentin 100 mg/kg PO
[7] = highest dose (3 mg/kg PO), post dose, p<0.01 vs vehicle

## O=C(O)CCCOc1ccc(Cl)c2c1C1(CCCCC1)NC(=O)N2 [5′-(3-(Carboxy)propoxy)-8′-chlorospiro[cyclohexane-1,4′-quinazolin]-2′(1′H)-one]
[1]; [3]
  effect on CCI-induced static allodynia: reversed the maintenance of CCI-induced static and dynamic allodynia in a dose dependent manner
[1]; [4]
  time of peak effect, static allodynia: 1 h
[1]; [5]
  MED for static allodynia: 1 mg/kg
[1]; [6]
  static allodynia reversal, curve profile versus gabapentin: comparable to gabapentin
[1]; [7]
  onset of anti-allodynic effect, static allodynia: 30 min
[2]; [3]
  effect on CCI-induced dynamic allodynia: reversed the maintenance of CCI-induced static and dynamic allodynia in a dose dependent manner
[2]; [4]
  time of peak effect, dynamic allodynia: 1 h
[2]; [5]
  MED for dynamic allodynia: 3 mg/kg
[2]; [6]
  dynamic allodynia effect versus gabapentin: less potent but significantly different from vehicle treated CCI rats
[2]; highest dose (3 mg/kg PO), 1 hrs post administration, vehicle treated CCI rats 3.7±0.7, latency recorded in sec, in s
  dynamic allodynia, paw withdrawal latency (mean±SEM): 10.2±1.4
[2]; [7]
  onset of anti-allodynic effect, dynamic allodynia: 30 min
